molecular target: PAPD5 enzyme (Homo sapiens, UniProt Q8NDF8); assay: PAPD5 assay (AMP incorporation onto 3'-terminus of RNA substrate, fluorescence quench); type: biochemical; settings: PAPD5 protein 0.3 nM, ATP 50 μM, 30 minutes preincubation, room temperature; read-out: Potency PAPD5 IC50
How it was run: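 Enzyme at 0.3 nM with 50 μM ATP, pH 7.3 HEPES buffer, preincubated with compound 30 minutes at room temperature; 5 nM 5′-fluorescein RNA substrate and 20 nM TAMRA quench probe then added. Initial rates from kinetic fluorescein decrease over ~90 minutes; IC50 by four-parameter fit.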

Chain of PAPD5 enzyme (Q8NDF8 whole entry): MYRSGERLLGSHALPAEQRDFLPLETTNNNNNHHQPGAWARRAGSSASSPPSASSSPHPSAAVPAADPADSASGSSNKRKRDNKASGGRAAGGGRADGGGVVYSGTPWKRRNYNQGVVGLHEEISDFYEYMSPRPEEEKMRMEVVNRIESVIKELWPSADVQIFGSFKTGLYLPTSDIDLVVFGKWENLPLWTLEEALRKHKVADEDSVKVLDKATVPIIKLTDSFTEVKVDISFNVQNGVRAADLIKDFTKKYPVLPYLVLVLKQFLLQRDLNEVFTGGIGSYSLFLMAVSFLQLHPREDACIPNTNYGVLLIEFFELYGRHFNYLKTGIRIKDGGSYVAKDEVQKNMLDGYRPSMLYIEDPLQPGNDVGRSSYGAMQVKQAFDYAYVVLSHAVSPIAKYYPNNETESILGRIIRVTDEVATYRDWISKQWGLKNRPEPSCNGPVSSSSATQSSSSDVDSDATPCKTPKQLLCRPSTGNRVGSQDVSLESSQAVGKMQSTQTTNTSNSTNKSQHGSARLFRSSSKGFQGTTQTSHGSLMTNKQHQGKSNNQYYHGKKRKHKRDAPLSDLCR

Structure (SMILES)	IC50 [nM]
Cc1cc(NC(=O)OC(C)(C)C)ncc1-n1cc(C(=O)O)c(=O)c2cc(Cl)c(N3CCc4ccncc4C3)nc21 [Example 187, 1-(6-((tert-butoxycarbonyl)amino)-4-methylpyridin-3-yl)-6-chloro-7-(3,4-dihydro-2,7-naphthyridin-2(1H)-yl)-4-oxo-1,4-dihydro-1,8-naphthyridine-3-carboxylic acid]	≤ 1000
Cc1cc(N2CC(N(C)C)C2)ncc1-n1cc(C(=O)O)c(=O)c2cc(Cl)c(N3Cc4cccnc4C3)nc21 [Example 188, 6-chloro-7-(5,7-dihydro-6H-pyrrolo[3,4-b]pyridin-6-yl)-1-(6-(3-(dimethylamino)azetidin-1-yl)-4-meth-ylpyridin-3-yl)-4-oxo-1,4-dihydro-1,8-naphthyridine-3-carboxylic acid]	≤ 1000
Cc1cc(N2CCC2)ncc1-n1cc(C(=O)O)c(=O)c2cc(Cl)c(N3Cc4cccnc4C3)cc21 [Example 189, 1-(6-(azetidin-1-yl)-4-methylpyridin-3-yl)-6-chloro-7-(5,7-dihydro-6H-pyrrolo[3,4-b]pyridin-6-yl)-4-oxo-1,4-dihydroquinoline-3-carboxylic acid]	≤ 1000
Cc1cc(N2CCC2)ncc1-n1cc(C(=O)O)c(=O)c2cc(F)c(N3Cc4cccnc4C3)cc21 [Example 190, 1-(6-(azetidin-1-yl)-4-methylpyridin-3-yl)-7-(5,7-dihydro-6H-pyrrolo[3,4-b]pyridin-6-yl)-6-fluoro-4-oxo-1,4-dihydroquinoline-3-carboxylic acid]	≤ 1000
Cc1cc(N(C)CCN(C)C)ncc1-n1cc(C(=O)O)c(=O)c2cc(Cl)c(N3Cc4cccnc4C3)nc21 [Example 192, 6-chloro-7-(5,7-dihydro-6H-pyrrolo[3,4-b]pyridin-6-yl)-1-(6-((2-(dimethylamino)ethyl)(methyl)amino)-4-methylpyridin-3-yl)-4-oxo-1,4-dihydro-1,8-naphthyridine-3-carboxylic acid]	≤ 1000
Nc1ccc(-n2cc(C(=O)O)c(=O)c3cc(Cl)c(N4Cc5ccccc5C4)cc32)cn1 [Example 194, 1-(6-aminopyridin-3-yl)-6-chloro-7-(isoindolin-2-yl)-4-oxo-1,4-dihydroquinoline-3-carboxylic acid]	≤ 1000
Nc1ccc(-n2cc(C(=O)O)c(=O)c3cc(F)c(N4Cc5ccccc5C4)cc32)cn1 [Example 195, 1-(6-aminopyridin-3-yl)-6-fluoro-7-(isoindolin-2-yl)-4-oxo-1,4-dihydroquinoline-3-carboxylic acid]	≤ 1000
Cc1cc(NC(=O)OC(C)(C)C)ncc1-n1cc(C(=O)O)c(=O)c2cc(Cl)c(N3CCc4cnccc4C3)nc21 [Example 196, 1-(6-((tert-butoxycarbonyl)amino)-4-methylpyridin-3-yl)-6-chloro-7-(3,4-dihydro-2,6-naphthyridin-2(1H)-yl)-4-oxo-1,4-dihydro-1,8-naphthyridine-3-carboxylic acid]	≤ 1000
Cc1cc(N)ncc1-n1cc(C(=O)O)c(=O)c2cc(Cl)c(N3CCc4cnccc4C3)nc21 [Example 197, 1-(6-amino-4-methylpyridin-3-yl)-6-chloro-7-(3,4-dihydro-2,6-naphthyridin-2(1H)-yl)-4-oxo-1,4-dihydro-1,8-naphthyridine-3-carboxylic acid]	≤ 1000
Cc1cc(N)ncc1-n1cc(C(=O)O)c(=O)c2cc(Cl)c(N3CCc4ncncc4C3)nc21 [Example 198, 1-(6-amino-4-methylpyridin-3-yl)-6-chloro-7-(7,8-dihydropyrido[4,3-d]pyrimidin-6(5H)-yl)-4-oxo-1,4-dihydro-1,8-naphthyridine-3-carboxylic acid]	≤ 1000
CCCc1cc(N)ncc1-n1cc(C(=O)O)c(=O)c2cc(Cl)c(N3Cc4cccnc4C3)cc21 [Example 199, 1-(6-amino-4-propylpyridin-3-yl)-6-chloro-7-(5,7-dihydro-6H-pyrrolo[3,4-b]pyridin-6-yl)-4-oxo-1,4-dihydroquinoline-3-carboxylic acid]	≤ 1000
Cc1cc(NS(C)(=O)=O)ncc1-n1cc(C(=O)O)c(=O)c2cc(Cl)c(N3Cc4cccnc4C3)nc21 [Example 200, 6-chloro-7-(5,7-dihydro-6H-pyrrolo[3,4-b]pyridin-6-yl)-1-(4-methyl-6-(methylsulfonamido)pyridin-3-yl)-4-oxo-1,4-dihydro-1,8-naphthyridine-3-carboxylic acid]	≤ 1000
O=C(O)c1cn(-c2cnc(N3CCC3)cn2)c2cc(N3Cc4cccnc4C3)c(Cl)cc2c1=O [Example 201, 1-(5-(azetidin-1-yl)pyrazin-2-yl)-6-chloro-7-(5,7-dihydro-6H-pyrrolo[3,4-b]pyridin-6-yl)-4-oxo-1,4-dihydroquinoline-3-carboxylic acid]	≤ 1000
